Earlier results in US11325978B2, “Compositions and methods for treating beta-globinopathies” (priority 2018, dated 2022).

System: RIOK3
Settings: collection of 72 inhibitors against 456 human kinases (Davis et al. 2011)

SMILES: COc1cc(Nc2c(C#N)cnc3cc(OCCCN4CCN(C)CC4)c(OC)cc23)c(Cl)cc1Cl [bosutinib, Bosutinib]
- inhibition of RIOK3 kinase activity: inhibit RIOK3 kinase activity
